Source: article PMC9981942, “Pharmacokinetics and tissue distribution of Ramulus Mori (Sangzhi) alkaloids in rats and its effects on liver enzyme activity” (Frontiers in Pharmacology, 2023)
Each block holds one compound with its values, some of them ahead of it.

How the values were obtained:
Assay in all cases: in vitro
CYP1A2 [1] = target: T1, CYP1A2 (Homo sapiens, UniProt P05177); details: microsomes, pH 7.4
T1 sequence (P05177 1-516): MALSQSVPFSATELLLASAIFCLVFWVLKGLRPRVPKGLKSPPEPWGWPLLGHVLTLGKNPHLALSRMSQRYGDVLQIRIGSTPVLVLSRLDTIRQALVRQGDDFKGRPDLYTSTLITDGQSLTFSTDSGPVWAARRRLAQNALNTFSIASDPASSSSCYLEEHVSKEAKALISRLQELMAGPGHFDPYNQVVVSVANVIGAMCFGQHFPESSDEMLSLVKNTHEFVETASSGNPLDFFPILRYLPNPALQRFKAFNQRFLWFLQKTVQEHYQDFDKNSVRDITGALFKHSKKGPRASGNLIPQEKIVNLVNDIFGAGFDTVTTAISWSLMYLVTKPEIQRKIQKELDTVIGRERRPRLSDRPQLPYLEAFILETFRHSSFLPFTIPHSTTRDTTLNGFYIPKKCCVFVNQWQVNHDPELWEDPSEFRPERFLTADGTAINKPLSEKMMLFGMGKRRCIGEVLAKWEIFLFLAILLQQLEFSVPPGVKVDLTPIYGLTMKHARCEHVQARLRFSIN

CYP1A2 [2] = target: T2, CYP1A2 (Rattus norvegicus, UniProt P04799); details: liver microsomes, pH 7.4, probe phenacetin (50 μM)
T2 sequence (P04799 1-513): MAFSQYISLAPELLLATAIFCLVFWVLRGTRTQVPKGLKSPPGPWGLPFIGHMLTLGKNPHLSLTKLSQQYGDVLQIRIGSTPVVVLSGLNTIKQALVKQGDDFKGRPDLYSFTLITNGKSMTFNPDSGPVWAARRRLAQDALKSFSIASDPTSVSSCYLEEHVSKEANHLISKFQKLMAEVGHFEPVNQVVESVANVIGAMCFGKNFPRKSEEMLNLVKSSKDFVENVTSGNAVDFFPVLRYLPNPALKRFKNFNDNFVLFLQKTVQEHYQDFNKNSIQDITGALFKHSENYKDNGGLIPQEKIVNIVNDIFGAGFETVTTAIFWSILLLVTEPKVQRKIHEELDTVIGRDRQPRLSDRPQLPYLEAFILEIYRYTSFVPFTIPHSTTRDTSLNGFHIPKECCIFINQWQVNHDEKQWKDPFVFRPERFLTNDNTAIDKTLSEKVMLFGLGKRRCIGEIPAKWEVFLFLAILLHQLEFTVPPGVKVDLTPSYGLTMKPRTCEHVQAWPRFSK

CYP2C6 = target: T3, CYP2C6 (Rattus norvegicus, UniProt P05178); details: liver microsomes, pH 7.4, probe diclofenac sodium (20 μM)
T3 sequence (P05178 1-490): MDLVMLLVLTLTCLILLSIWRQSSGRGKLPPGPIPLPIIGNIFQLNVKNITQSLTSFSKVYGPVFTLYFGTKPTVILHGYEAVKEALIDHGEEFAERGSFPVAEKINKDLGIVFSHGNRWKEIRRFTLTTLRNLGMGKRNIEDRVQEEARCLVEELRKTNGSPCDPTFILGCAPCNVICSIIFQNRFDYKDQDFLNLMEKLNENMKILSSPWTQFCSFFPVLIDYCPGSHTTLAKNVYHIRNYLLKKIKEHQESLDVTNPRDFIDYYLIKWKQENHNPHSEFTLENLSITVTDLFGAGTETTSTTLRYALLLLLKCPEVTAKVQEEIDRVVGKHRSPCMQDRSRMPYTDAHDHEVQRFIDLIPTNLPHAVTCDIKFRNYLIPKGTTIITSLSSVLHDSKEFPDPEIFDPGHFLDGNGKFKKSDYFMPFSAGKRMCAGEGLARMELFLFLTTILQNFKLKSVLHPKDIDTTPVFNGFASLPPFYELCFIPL

CYP3A2 = target: T4, CYP3A2 (Rattus norvegicus, UniProt P05183); details: liver microsomes, pH 7.4, probe midazolam (5 μM)
T4 sequence (P05183 1-504): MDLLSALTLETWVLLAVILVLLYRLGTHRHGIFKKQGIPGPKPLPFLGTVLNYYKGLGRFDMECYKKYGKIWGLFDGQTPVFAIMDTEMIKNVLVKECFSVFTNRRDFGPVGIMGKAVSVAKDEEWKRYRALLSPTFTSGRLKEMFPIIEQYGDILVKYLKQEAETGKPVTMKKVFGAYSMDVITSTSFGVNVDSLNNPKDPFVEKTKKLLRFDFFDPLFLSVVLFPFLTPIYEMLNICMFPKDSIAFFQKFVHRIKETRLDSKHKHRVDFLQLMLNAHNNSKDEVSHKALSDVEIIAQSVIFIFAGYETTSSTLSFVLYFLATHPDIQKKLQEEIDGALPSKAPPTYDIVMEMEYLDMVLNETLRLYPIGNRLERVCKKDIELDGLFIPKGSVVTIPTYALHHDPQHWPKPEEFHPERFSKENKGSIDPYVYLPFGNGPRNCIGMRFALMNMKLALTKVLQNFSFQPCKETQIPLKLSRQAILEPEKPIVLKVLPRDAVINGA

Structure (SMILES): Cc1nc2c([nH]1)c(=O)n(C)c(=O)n2Cc1ccco1 [furafylline]
inhibition at 30 min, 10 μM (CYP1A2 [1]): 71.8%
inhibition at 30 min, 50 μM (CYP1A2 [2]): 66.3%

inhibition at 10 min, 50 μM (CYP2C6): 88%
Structure (SMILES): Nc1ccc(S(=O)(=O)Nc2ccnn2-c2ccccc2)cc1 [sulfaphenazole]

inhibition at 5 min, 1 μM (CYP3A2): 76.4%
Structure (SMILES): CC(=O)N1CCN(c2ccc(OCC3COC(Cn4ccnc4)(c4ccc(Cl)cc4Cl)O3)cc2)CC1 (stereo not shown) [ketoconazole]
